Laboratory results from patent publication US20250313574A1, “SIALIC ACID DERIVATIVES AND METHODS OF USING SAME” (EISAI R&D MANAGEMENT CO., LTD., priority 2022, published 2025).

Experiments:
[1] = molecular target: Recombinant human CD33 protein (Homo sapiens (Human), UniProt P20138); assay: CD33 competitive binding assay for HTS drug screen (fluorescent multivalent sialic acid probe)
Experimental: This is a competitive binding assay that uses recombinant CD33 immobilized to a plate and a fluorescently-labeled multivalent sialic acid analog as a probe. Binding of drug to the site on CD33 to which sialic acid binds is detected by reduced binding of the fluorescent probe. Recombinant human CD33 protein (for example Acro Biosystems cat #CD3-H5257) was added at a concentration of 10 μg/ml in 20 mM acetate buffer (pH5.5) to a black plastic plate (Corning 4510) and allowed to incubate overnight at 4° C. The next day, the wells were washed 3 times with PBS containing 0.02% Tween-20. This was followed by a 30-minute incubation with PBS containing 0.2% Tween-20 and 0.5% BSA to block non-specific binding to the well. This buffer is removed and replaced with 10 μl of the same buffer, which is also used as the assay buffer. The fluorescent multivalent sialic acid probe was prepared as a 4× concentration as follows. A biotinylated sialic acid analog A-375 was mixed with biotin-4-Fluorescein isothiocyanate (biotin-4-FITC) at a 3:1 molar ratio with final concentrations (4× stock) of 60 μM A-375 and 20 μM biotin-4-FITC. After these were mixed, 20 μM of neutravidin was added, which should form complexes consisting of neutravidin, fluorescein and sialic acid with an average complex consisting of 1 neutravidin, 1 FITC and 3 sialic acid analogs. The multimerization of the sialic acid analog is critical to the assay and improves the affinity of the sialic acid analog several orders of magnitude. A test compound, for example A-001, is added at 5 μl to the 10 μl assay buffer already in the well. After a brief incubation, 5 μl of the 4× stock solution of sialic acid complexes was added. The final concentration of the complexes was therefore 5 μM neutravidin, 15 μM A-375 and 5 μM FITC. The plate was incubated at room temperature for 30 mins and then washed with PBS containing 0.2% Tween-20. Binding of the sialic acid complex is very stable, with an off-rate of several days. Bound complex was then detected using a standard plate reader to quantify FITC fluorescence.

[2] = molecular target: Recombinant Human Siglec-3/CD33 protein (His-CD33) (Homo sapiens (Human), UniProt P20138); assay: Differential scanning fluorimetry (DSF) thermal shift assay; format: binding
Sequence of Recombinant Human Siglec-3/CD33 protein (His-CD33) (P20138 18-259): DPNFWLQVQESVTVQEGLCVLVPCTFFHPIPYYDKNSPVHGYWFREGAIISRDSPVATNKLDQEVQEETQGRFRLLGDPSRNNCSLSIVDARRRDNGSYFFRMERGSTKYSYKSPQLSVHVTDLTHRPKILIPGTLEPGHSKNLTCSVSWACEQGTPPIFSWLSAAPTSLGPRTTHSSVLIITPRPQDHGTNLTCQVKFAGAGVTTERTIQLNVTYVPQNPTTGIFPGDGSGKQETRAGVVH
Experimental: In the DSF assay, as the temperature increases, the protein gets gradually unfolded, exposing hydrophobic regions in which a fluorescent dye binds causing the fluorescence signal to increase. The midpoint of the unfolding transitions is called the thermal melt (Tm) or denaturation temperature and the Tm was defined as the peak apex in the derivative curve. Here, the Tm temperature of CD33 in the presence and absence of A-001 at a concentration of 50 μM was examined.
Recombinant Human Siglec-3/CD33 protein was purchased from Acros (catalog no. CD3-H5226) and reagents used in this study are shown in the Table 1 below.
Lyophilized CD33 protein was received in 1 mg aliquots from Acros. The protein was diluted with 2.5 mL of sterile water to a concentration of 400 μg/mL (14.5 μM), aliquoted into 138 μL aliquots and stored as at −20° C. On the day of analysis, the protein was thawed and […] solution was diluted to […] using buffer containing 133 mM NaCl, 133 mM phosphate buffered solution and 13.9× Sypro Orange dye in water in a quantity to cover the amount of samples tested on the day of the analysis.
200 μM stock solutions of A-001 containing 0.2% DMSO in water was supplied by compound management in a 384-well plate format.
Sample matrix were prepared by adding 7.5 μL of the protein buffer stock solution followed by addition of 2.5 μL of the 200 μM compound solutions in 384-well PCR plates to give a final volume of 10 μL per well consisting of 0.5 μM CD33 protein, 100 mM phosphate buffered solution pH 7.4, 100 mM NaCl, 10× SYPRO orange dye and 50 μM compound concentration (final DMSO concentration ˜0.2%). Using the Applied Biosystems® Protein Thermal Shift software (algorithm version 1.3.), the denaturation temperature or thermal melt (Tm) of the unbound and ligand bound CD33 protein was automatically assigned and the difference in thermal melt (ΔTm D) was calculated using the derivative curve by the Protein Thermal Shift software.
Recombinant human CD33 protein (0.5 μM) was incubated under buffered conditions in the presence of SYPRO orange dye, a temperature gradient was applied and a thermogram was produced by monitoring the fluorescence. The Tm was defined as the peak apex in the derivative curve in the study. […] Addition of […] of A-001 (Blue lines) to the CD33 protein induced significant Tm increases (ΔTm D) of 12.2±0.7° C.

[3] = difference in thermal melt of CD33 protein (0.5 μM) with 50 μM compound
[4] = thermal melt shift of 0.5 μM CD33 protein with 50 μM compound

Sequence of Recombinant human CD33 protein (P20138 18-259): as above

Row | SMILES | EC50 [1] | DSF (dTmD) [2, 3] | DSF (dTmD) [2, 4]
1 | CC(=O)N[C@H]1[C@H]([C@H](O)[C@H](O)CNC(=O)c2cc(C)c(O)c(C)c2)O[C@@](C/C=C/c2cccc(C3CCCN3C(=O)OC(C)(C)C)c2)(C(=O)O)C[C@@H]1O (stereo partly drawn) [A-295] | 6640 nM | 4.0 °C | –
2 | CC(=O)N[C@H]1[C@H]([C@H](O)[C@H](O)CNC(=O)c2cc(C)c(O)c(C)c2)O[C@](CO)(CCN2CCOC[C@@]23CCN(C(=O)OC(C)(C)C)C3)C[C@@H]1O [A-360] | > 100000 nM | −0.3 °C | –
3 | CC(=O)N[C@H]1[C@H]([C@H](O)[C@H](O)CNC(=O)c2cc(C)c(O)c(C)c2)O[C@@](CCN2CCOC[C@@]23CCN(C(=O)NC(C)C)C3)(C(=O)O)C[C@@H]1O [A-048] | 24 nM | – | 12.5
4 | CC(=O)N[C@H]1[C@H]([C@H](O)[C@H](O)CNC(=O)c2cc(C)c(O)c(C)c2)O[C@@](CCN2CCOC[C@@]23CCN(C(=O)C2(C)CCCCC2)C3)(C(=O)O)C[C@@H]1O [A-071] | 41 nM | – | 11.0
5 | CC(=O)N[C@H]1[C@H]([C@H](O)[C@H](O)CNC(=O)c2cc(C)c(O)c(C)c2)O[C@@](C/C=C/c2cc(CNC(=O)C3CCCOC3)ccc2C)(C(=O)O)C[C@@H]1O (stereo partly drawn) [A-290] | 20400 nM | 2.0 °C | –
6 | CC(=O)N[C@H]1[C@H]([C@H](O)[C@H](O)CNC(=O)c2cc(C)c(O)c(C)c2)O[C@@](C/C=C/c2cccc(CNC(=O)c3cccc(Nc4nccs4)c3)c2)(C(=O)O)C[C@@H]1O [A-241] | 7970 nM | 5.3 °C | –
7 | CC(=O)N[C@H]1[C@H]([C@H](O)[C@H](O)CNC(=O)c2cc(C)c(O)c(C)c2)O[C@@](C/C=C/c2cccc(CNC(=O)c3ccc4cn[nH]c4c3)c2)(C(=O)O)C[C@@H]1O [A-235] | 2090 nM | 3.3 °C | –
8 | Cc1cc(C(=O)NC[C@@H](O)[C@@H](O)[C@@H]2O[C@@](C/C=C/c3cccc(CNC(=O)c4ccc5[nH]cnc5c4)c3)(C(=O)O)C[C@H](O)[C@H]2NC(=O)Cn2cc(C3CCCCC3)nn2)cc(C)c1O [A-280] | 4900 nM | 3.8 °C | –
9 | CC(=O)NC1[C@H]([C@H](O)[C@H](O)CNC(=O)c2cc(C)c(O)c(C)c2)O[C@@](CC(=O)N2CCOC[C@@]23CCN(C(=O)NC(C)(C)C)C3)(C(=O)O)C[C@@H]1O (stereo partly drawn) [A-223] | 123 nM | 8.9 °C | –
10 | CC(=O)N[C@H]1[C@H]([C@H](O)[C@H](O)CNC(=O)c2cc(C)c(O)c(C)c2)O[C@@](C/C=C/c2cccc(CNC(=O)c3ccc4[nH]c(CCO)cc4c3)c2)(C(=O)O)C[C@@H]1O [A-248] | 682 nM | 6.0 °C | –
11 | CC(=O)N[C@H]1[C@H]([C@H](O)[C@H](O)CNC(=O)c2cc(C)c(=O)n(C)c2)O[C@@](CCN2CCOC[C@@]23CCN(C(=O)OC(C)(C)C)C3)(C(=O)O)C[C@@H]1O [A-191] | 163 nM | – | 9.4
12 | CC(=O)N[C@H]1[C@H]([C@H](O)[C@H](O)CNC(=O)c2ccc(C)c(C)c2)O[C@@](CCN2CCOC[C@@]23CCN(C(=O)OC(C)(C)C)C3)(C(=O)O)C[C@@H]1O [A-180] | 74 nM | – | 10.9
13 | CC(=O)N[C@H]1[C@H]([C@H](O)[C@H](O)CNC(=O)c2cc(C)c(O)c(C)c2)O[C@@](CCN2CCOC[C@@]23CCN(C(=O)N[C@@H](C)c2ccccc2)C3)(C(=O)O)C[C@@H]1O [A-043] | 13 nM | – | 13.2
14 | Cc1cc(C(=O)NC[C@@H](O)[C@@H](O)[C@@H]2O[C@@](C/C=C/c3cccc(CNC(=O)c4ccc5[nH]ccc5c4)c3)(C(=O)O)C[C@H](O)[C@H]2NC(=O)Cn2cc(C3CCCCC3)nn2)cc(C)c1O [A-278] | 1740 nM | 8.8 °C | –
15 | CC(=O)N[C@H]1[C@H]([C@H](O)[C@H](O)CNC(=O)c2cc(C)c(C(N)=O)c(C)c2)O[C@@](CCN2CCOC[C@@]23CCN(C(=O)OC(C)(C)C)C3)(C(=O)O)C[C@@H]1O [A-141] | 350 nM | – | 7.0
16 | CC(=O)N[C@H]1[C@H]([C@H](O)[C@H](O)CNC(=O)c2cc(C)c(O)c(C)c2)O[C@@](C[C@H]2COC[C@]3(CCN(C(=O)OC(C)(C)C)C3)N2)(C(=O)O)C[C@@H]1O [A-224] | 143 nM | 8.9 °C | –
17 | CC(=O)N[C@H]1[C@H]([C@H](O)[C@H](O)CNC(=O)c2cc(C)c(O)c(C)c2)O[C@@](CCN2CCOC[C@@]23CCN(C(=O)N(C)Cc2ccccc2)C3)(C(=O)O)C[C@@H]1O [A-063] | 323 nM | – | 6.3
18 | COc1cc(C(=O)NC[C@@H](O)[C@@H](O)[C@@H]2O[C@@](CCN3CCOC[C@@]34CCN(C(=O)OC(C)(C)C)C4)(C(=O)O)C[C@H](O)[C@H]2NC(C)=O)ccc1C#N [A-165] | 1140 nM | – | 5.7
19 | CC(=O)N[C@H]1[C@H]([C@H](O)[C@H](O)CNC(=O)c2cc(C)c(O)c(C)c2)O[C@@](CCN2CCOC[C@@]23CCN(C(=O)OC(C)(C)C)C3)(C(N)=O)C[C@@H]1O [A-364] | > 100000 nM | 0.1 °C | –
20 | Cc1cc(C(=O)NC[C@@H](O)[C@@H](O)[C@@H]2O[C@@](C/C=C/c3cccc(CNC(=O)c4cn[nH]c4)c3)(C(=O)O)C[C@H](O)[C@H]2NC(=O)Cn2cc(C3CCCCC3)nn2)cc(C)c1O [A-277] | 10200 nM | 4.3 °C | –
21 | COC(=O)[C@@]1(CCN2CCOC[C@@]23CCN(C(=O)OC(C)(C)C)C3)C[C@H](O)[C@@H](NC(C)=O)[C@H]([C@H](O)[C@H](O)CNC(=O)c2cc(C)c(O)c(C)c2)O1 [A-002] | – | – | −0.3
22 | CC(=O)NC1[C@H]([C@H](O)[C@H](O)CNC(=O)c2cc(C)c(O)c(C)c2)O[C@@](CC(=O)N2CCOC[C@]23CCN(C(=O)OC(C)(C)C)C3)(C(=O)O)C[C@@H]1O (stereo partly drawn) [A-222] | – | 9.3 °C | –
23 | Cc1cc(C(=O)NC[C@H](O)C[C@H]2CC[C@H](C)[C@](CCN3CCOC[C@@]34CCN(C(=O)OC(C)(C)C)C4)(C(=O)O)O2)cc2cc[nH]c12 [A-218] | > 20000 nM | – | –
24 | COC[C@@]1(N(C)CC[C@]2(C(=O)O)C[C@H](O)[C@@H](NC(C)=O)[C@H]([C@H](O)[C@H](O)CNC(=O)c3cc(C)c(O)c(C)c3)O2)CCN(C(=O)OC(C)(C)C)C1 [A-031] | 70 nM | – | –
25 | Cc1cc(C(=O)NCC(O)C[C@@H]2O[C@@](C/C=C/C3CCN(C(=O)OC(C)(C)C)C3)(C(=O)O)CCC2C)cc(C)c1O (single isomer, unassigned) [A-210] | 21400 nM | – | –
